Laboratory results as given in patent US20140243292A1, “SUBSITUTED 2-(CHROMAN-6-YLOXYL)-THIAZOLES AND THEIR USE AS PHARMACEUTICALS” (Sanofi, priority 2011, published 2014).
Where a name gives a salt, the structure may show the parent alone.

Each compound was assayed against T1, human NCX1 (Homo sapiens, UniProt P32418) (assay: NCX1 inhibition, reverse mode (Ca2+ influx into cells), FLIPR Fluo-4 assay). Conditions: inhibition of NCX1 in reverse mode (Ca2+ influx into cells); read-out: NCX1rv IC50.
T1 construct: expressed in transfected cells
Assay type: cell-based
Text: The sodium/calcium exchanger NCX1 can transport calcium ions and sodium ions through the cell membrane. The transport is an exchange of Ca^2+ and Na^+ in two directions depending on membrane potential and ion gradients. At the first direction, named “forward mode” or “calcium export mode”, Ca^2+ is transported out of the cell and Na^+ is transported into the cell. At the other direction, named “reverse mode” or “calcium import mode”, the transport directions are vice versa. The effect of the compounds of the invention on NCX1 was determined in CHO cells stably expressing human NCX1 (gene symbol SLC8A1; cf. WO 2009/115238). The assay is based on the monitoring of intracellular Ca^2+ concentrations using a calcium-sensitive fluorescence dye which is detected by means of a FLIPR device (Fluorimetric Imaging Plate Reader, Molecular Devices).
The assay is based on the monitoring of intracellular Ca^2+ concentrations using the calcium-sensitive dye Fluo-4. CHO cells expressing NCX1 were loaded with the dye by means of the acetoxymethyl ester Fluo-4 AM (Invitrogen, F14202), which is cleaved intracellularly by esterase activity to yield the charged species of free Fluo-4. After an preincubation period with the test compound, Gramicidine (Sigma, G5002) was added. Gramicidine is an ionophor for Na^+ ions mediating an increase of intracellular Na^+ ions. Consequently, intracellular Na^+ ions are exchanged against extracellular Ca^2+ ions (Ca^2+ influx, reverse mode). The intracellular elevation of Ca^2+ ions was detected by measuring the fluorescence of Fluo-4 at a wavelength of 520 nm by a FLIPR device.
Briefly, for the reverse mode transport assay 18000 cells per well were seeded into a 96 well microplate (Corning COSTAR 3904) and incubated overnight in culture medium (1× Nut Mix F12 (Ham) (Gibco, 21765-029); 10% (v/v) fetal calf serum (PAA Gold, A15-649); 450 μg/ml Geneticin (Gibco, 10131-027)). A total volume of 100 μl medium per well was used. For the preparation of the FLIPR assay, the culture medium was removed from the plates and 100 μl of dye solution (2 μM Fluo-4 AM; 0.02% (v/v) Pluronic F-127 (20%, Invitrogen, P3000MP); 0.1% (v/v) bovine albumin solution (30% (v/v), Sigma, A9205) in assay buffer (133.8 mM NaCl (Sigma, S5886); 4.7 mM KCl (Sigma, P3911); 1.25 mM MgCl2 (Merck, 1.05833.0250); 3.5 mM CaCl2 (Merck, 1.02083.0250); 5 mM glucose (Sigma, G7021); 10 mM Hepes (Sigma, H4034); 0.01% (v/v) Pluronic F-127 (5%, Sigma, P2443); 2.5 mM Probenecid (Maybridge, SB00915EB); pH 7.4)) were added into each well. The plates were incubated in the dark at room temperature for 80 min. After the incubation period, the dye solution was removed and the wells were washed with 100 μl of assay buffer. Then 80 μl of a solution of the test compound in assay buffer in different concentrations were added into the wells. The plates were incubated at 16° C. for 45 min. Meanwhile a 60 μM solution of Gramicidine in assay buffer (4° C.) was prepared and stored in the wells of a 96 well microplate (96 well microplate, polypropylene, U-shape (Greiner Bio-One, 650201)) at 4° C. until measurement was started. The fluorescence monitoring was performed at 240 measuring points with measurement intervals of 2 sec. After the fifth measuring point, 40 μl of the Gramicidine solution were added to each well of the assay plates to give a final Gramicidine concentration of 20 μM. For the determination of the IC50 values the minimal fluorescence value was subtracted from the maximal fluorescence value for all measuring points. The calculation of the IC50 values via the percentage inhibitions of Ca^2+ influx into cells (reverse mode) effected by the test compound was performed in Biost@t Speed 2.0.

Compound	IC50
2-[2-(2,6-Dimethyl-phenyl)-chroman-6-yloxy]-thiazole-5-carboxylic acid [2-(2-oxo-imidazolidin-1-yl)-ethyl]-amide [compound 347]	1500 nM
CCn1cc(CNC(=O)c2cnc(Oc3ccc4c(c3)CCC(c3ccccc3)O4)s2)cn1 (centres unmarked) [compound 1]	300 nM
CCn1nccc1CNC(=O)c1cnc(Oc2ccc3c(c2)CCC(c2ccccc2)O3)s1 (centres unmarked) [compound 3]	400 nM
O=C(NCc1ccncc1)c1cnc(Oc2ccc3c(c2)CCC(c2ccccc2)O3)s1 (centres unmarked) [compound 4]	300 nM
CC(NC(=O)c1cnc(Oc2ccc3c(c2)CCC(c2ccccc2)O3)s1)c1ccncc1 (centres unmarked) [compound 6]	400 nM
Cc1ncsc1CCNC(=O)c1cnc(Oc2ccc3c(c2)CCC(c2ccccc2)O3)s1 (centres unmarked) [compound 7]	300 nM
Cc1c(C(C)NC(=O)c2cnc(Oc3ccc4c(c3)CCC(c3ccccc3)O4)s2)cnn1C (centres unmarked) [compound 8]	800 nM
COc1cc(CNC(=O)c2cnc(Oc3ccc4c(c3)CCC(c3ccccc3)O4)s2)ccn1 (centres unmarked) [compound 10]	600 nM
Nc1cc(CNC(=O)c2cnc(Oc3ccc4c(c3)CCC(c3ccccc3)O4)s2)ccn1 (centres unmarked) [compound 11]	400 nM
O=C(NCc1cnc(Oc2ccc3c(c2)CCC(c2ccccc2)O3)s1)c1cccnc1 (centres unmarked) [compound 15, hydrochloride]	100 nM
O=C(NCc1nnc2ccccn12)c1cnc(Oc2ccc3c(c2)CCC(c2cccc(F)c2)O3)s1 (centres unmarked) [compound 17, hydrochloride]	200 nM
O=C(Cc1ccccn1)NCc1cnc(Oc2ccc3c(c2)CCC(c2ccccc2)O3)s1 (centres unmarked) [compound 19, hydrochloride]	100 nM
Cc1nccc(CNC(=O)c2cnc(Oc3ccc4c(c3)CCC(c3ccccc3)O4)s2)n1 (centres unmarked) [compound 21]	100 nM
Cc1nn(C)cc1C(C)NC(=O)c1cnc(Oc2ccc3c(c2)CCC(c2ccccc2)O3)s1 (centres unmarked) [compound 23]	800 nM
CN(Cc1ccnc(N2CCCC2)c1)C(=O)c1cnc(Oc2ccc3c(c2)CCC(c2ccccc2)O3)s1 (centres unmarked) [compound 26]	300 nM
CC[C@@H](NC(=O)c1cnc(Oc2ccc3c(c2)CCC(c2ccccc2)O3)s1)c1ccc(OC)nc1 (some centres unmarked) [compound 27]	300 nM
CN(C)c1cc(CNC(=O)c2cnc(Oc3ccc4c(c3)CCC(c3ccccc3)O4)s2)ccn1 (centres unmarked) [compound 29]	100 nM
O=C(NCc1ccncc1)c1sc(Oc2ccc3c(c2)CCC(c2ccccc2)O3)nc1C(F)(F)F (centres unmarked) [compound 30, hydrochloride]	300 nM

Compound	IC50
Cc1n[nH]c(C)c1C(C)NC(=O)c1cnc(Oc2ccc3c(c2)CCC(c2ccccc2)O3)s1 (centres unmarked) [compound 31]	1000 nM
Cc1noc(C)c1CCNC(=O)c1cnc(Oc2ccc3c(c2)CCC(c2ccccc2)O3)s1 (centres unmarked) [compound 34]	200 nM
O=C(NCc1nnc2ccccn12)c1cnc(Oc2ccc3c(c2)CCC(c2ccccc2)O3)s1 (centres unmarked) [compound 35]	600 nM
O=C(NCc1ccncc1)c1cnc(Oc2ccc3c(c2)CC[C@H](c2ccccc2)O3)s1 [compound 37]	200 nM
O=C(NCc1cn2ccccc2n1)c1cnc(Oc2ccc3c(c2)CCC(c2ccccc2)O3)s1 (centres unmarked) [compound 41]	5000 nM
O=C(NCc1ccnc(O)c1)c1cnc(Oc2ccc3c(c2)CCC(c2ccccc2)O3)s1 (centres unmarked) [compound 42]	200 nM
O=C(Cc1ccncc1)NCc1cnc(Oc2ccc3c(c2)CCC(c2ccccc2)O3)s1 (centres unmarked) [compound 43, hydrochloride]	300 nM
O=C(Cc1ccncc1)NCc1cnc(Oc2ccc3c(c2)CCC(c2cccc(F)c2)O3)s1 (centres unmarked) [compound 46, hydrochloride]	200 nM
O=S(=O)(NCc1cnc(Oc2ccc3c(c2)CCC(c2ccccc2)O3)s1)c1cccnc1 (centres unmarked) [compound 47, hydrochloride]	100 nM
O=C(NCc1cnc(Oc2ccc3c(c2)CCC(c2ccccc2)O3)s1)c1ccno1 (centres unmarked) [compound 48]	100 nM
O=C(NCc1ccno1)c1cnc(Oc2ccc3c(c2)CCC(c2cccc(F)c2)O3)s1 (centres unmarked) [compound 49]	100 nM
Cn1cnc(S(=O)(=O)NCc2cnc(Oc3ccc4c(c3)CCC(c3ccccc3)O4)s2)c1 (centres unmarked) [compound 50, 1-Methyl-1H-imidazole-4-sulfonic acid [2-(2-phenyl-chroman-6-yloxy)-thiazol-5-ylmethyl]-amide hydrochloride]	200 nM
Cc1c(CNC(=O)c2cnc(Oc3ccc4c(c3)CCC(c3cccc(F)c3)O4)s2)cnn1C (centres unmarked) [compound 51]	200 nM
C[C@H](NC(=O)c1cnc(Oc2ccc3c(c2)CCC(c2ccccc2)O3)s1)c1nc(C2CC2)cs1 (some centres unmarked) [compound 52]	400 nM
CC(C)c1csc([C@H](C)NC(=O)c2cnc(Oc3ccc4c(c3)CCC(c3ccccc3)O4)s2)n1 (some centres unmarked) [compound 53]	700 nM
O=C(NCc1ccncc1)c1cnc(Oc2ccc3c(c2Cl)CCC(c2ccccc2)O3)s1 (centres unmarked) [compound 55, hydrochloride]	1200 nM
Cc1nccc(CNC(=O)c2cnc(Oc3ccc4c(c3)CCC(c3cccc(F)c3)O4)s2)n1 (centres unmarked) [compound 56, hydrochloride]	200 nM
NCc1cnc(Oc2ccc3c(c2)CCC(c2ccccc2)O3)s1 (centres unmarked) [compound 57, C-[2-(2-Phenyl-chroman-6-yloxy)-thiazol-5-yl]-methylamine]	100 nM

Second part, the compound after the results:

IC50	Compound
300 nM	2-((S)-2-Phenyl-chroman-6-yloxy)-thiazole-5-carboxylic acid (3-amino-propyl)-amide [compound 289]
400 nM	Cn1nccc1CNC(=O)c1cnc(Oc2ccc3c(c2)CCC(c2ccccc2)O3)s1 (centres unmarked) [compound 5]
800 nM	Cc1cc(CNC(=O)c2cnc(Oc3ccc4c(c3)CCC(c3ccccc3)O4)s2)ccn1 (centres unmarked) [compound 9]
200 nM	Nc1cc(CNC(=O)c2cnc(Oc3ccc4c(c3)CCC(c3cccc(F)c3)O4)s2)ccn1 (centres unmarked) [compound 12]
100 nM	O=C(Cc1cccnc1)NCc1cnc(Oc2ccc3c(c2)CCC(c2ccccc2)O3)s1 (centres unmarked) [compound 16, hydrochloride]
400 nM	CC[C@H](NC(=O)c1cnc(Oc2ccc3c(c2)CCC(c2ccccc2)O3)s1)c1ccc(OC)nc1 (some centres unmarked) [compound 22]
100 nM	O=C(NCc1ccno1)c1cnc(Oc2ccc3c(c2)CCC(c2ccccc2)O3)s1 (centres unmarked) [compound 24]
400 nM	O=C(NCc1ccnc(N2CCCC2)c1)c1cnc(Oc2ccc3c(c2)CCC(c2ccccc2)O3)s1 (centres unmarked) [compound 25]
200 nM	O=C(NCc1ccnc(N2CCOCC2)c1)c1cnc(Oc2ccc3c(c2)CCC(c2ccccc2)O3)s1 (centres unmarked) [compound 28]
200 nM	Cc1cc(C)nc(CNC(=O)c2cnc(Oc3ccc4c(c3)CCC(c3ccccc3)O4)s2)n1 (centres unmarked) [compound 33]
100 nM	O=C(NCc1ccncc1)c1cnc(Oc2ccc3c(c2)CC[C@@H](c2ccccc2)O3)s1 [compound 36]
300 nM	Cc1noc(C)c1CCCNC(=O)c1cnc(Oc2ccc3c(c2)CCC(c2ccccc2)O3)s1 (centres unmarked) [compound 38]
400 nM	O=C(NCc1ccncc1Cl)c1cnc(Oc2ccc3c(c2)CCC(c2ccccc2)O3)s1 (centres unmarked) [compound 40]
200 nM	O=C(NCc1cnc(Oc2ccc3c(c2)CCC(c2cccc(F)c2)O3)s1)c1cccnc1 (centres unmarked) [compound 44, hydrochloride]
100 nM	O=C(Cc1cccnc1)NCc1cnc(Oc2ccc3c(c2)CCC(c2cccc(F)c2)O3)s1 (centres unmarked) [compound 45, hydrochloride]
200 nM	C[C@H](NC(=O)c1cnc(Oc2ccc3c(c2)CCC(c2ccccc2)O3)s1)c1nccs1 (some centres unmarked) [compound 54]
100 nM	O=C(NCc1ccncc1)c1cnc(Oc2ccc3c(c2)CCC(c2ccsc2)O3)s1 (centres unmarked) [compound 60, hydrochloride]
